We go through 61 compounds from a melting point compilation (Tetko et al.; mined from patent text by program, amines drawn as free bases though some values may be those of a salt).

In general, melting point refers to the temperature of the solid-liquid transition. Regarding `NC1=CC=C2C=c3c(cnn3-c3ccccc3)=C2C1=O`, the melting point is 200 to 202 °C.

On to `CCn1c(C(=O)N(C)Cc2cc(C(F)(F)F)cc(C(F)(F)F)c2)c(-c2ccccc2)c2ccccc2c1=O`, for which the melting point lay within 105 to 106 °C.

As for `O=C(Nc1cccc(C(F)(F)F)c1)c1cccc2cc(Oc3cc(CO)ncn3)ccc12`, the melting point fell in the range of 183 to 184 °C.

In the case of `COc1ccc(-c2[nH]nc3c2C(=O)c2c(NC(=O)NNC(=O)c4cc(N)cc(N)c4)cccc2-3)cc1`, the melting point was greater than 300 °C.

`COc1ccc2c(c1)N(C)C(=O)C2C` (stereo unspecified) displayed a melting point of 44 to 46 °C.

For the compound `CONC(=O)C(Cl)=Cc1cc(-n2c(=O)cc(C(F)(F)F)n(C)c2=O)ccc1Cl`, the melting point lay within 136 to 141 °C.

Consider `Cc1[nH]c(=O)n(-c2cc(C(=O)OC(C)C)c(Cl)cc2F)c(=O)c1Cl`, for which the melting point lay in the range of 198 to 201 °C.

For the compound `O=C1c2ccccc2C(=O)N1OCc1cccc(C(F)(F)F)c1`, the melting point was in the range of 106 to 108 °C.

In the case of `Cc1cc(CCCOc2ccc(-c3noc(C(F)(F)F)n3)cc2C)on1`, the melting point fell in the range of 69 to 70 °C.

Turning to `C=CCN1C(=O)NC(C)(C)C1=O`, the melting point is 66.2 to 68.7 °C.

`NC(=O)c1cccc(OCCCCCCCc2ccsc2)c1` returned a melting point of 97 to 100 °C.

`O=C(Nc1cccc(S(=O)(=O)NCCc2ccncc2)c1)c1cnn2c(C(F)F)cc(-c3ccc(C(F)(F)F)cc3)nc12` showed a melting point of 238 °C.

In turn, `CCOC(=O)c1c(C)nn2ccc3c(c12)CCO3` displayed a melting point of 173 to 174 °C.

`CCOC(=O)/C=C/c1ccc(OCCC2(C)OCCO2)cc1Oc1ncc(C(F)(F)F)cc1Cl` gave a melting point of 90 to 91 °C.

`COc1ccc(CNc2nnc(OCCCO)c3ccc(Cl)cc23)cc1Cl`: the melting point lay within 124 to 126 °C.

`Cc1cccc(C)c1NC(=O)NCCCc1cc(-c2ccccc2)n(-c2ccc(S(N)(=O)=O)cc2)n1` yielded a melting point of 138 to 141 °C.

Turning to `Cc1cccc(C)c1N(CCCC(=O)O)C(=O)CCCN(C(=O)c1ccc(Cl)cc1)c1c(C)cccc1C`, the melting point lay within 129 to 131 °C.

`CCCCCCCCCCc1c(C(=O)O)sc2c1sc1c(CCCCCCCCCC)c(C(=O)O)sc12` had a melting point of 280 °C.

Consider `CC(C)(C)OC(=O)N1C(=O)C(Br)=C(c2cn(C(=O)OC(C)(C)C)c3cc(OCc4ccccc4)ccc23)C1=O`, for which the melting point amounted to 120 °C.

In the case of `O=C(NCCCCC(NC(=O)OCc1ccccc1)C(=O)NC1OC(C(=O)O)CC1O)OCc1ccccc1` (stereo unspecified), the melting point lay within 86 to 100 °C.

`CN1C(=O)CC[C@]2(C)c3ccc(-c4ccc5ncccc5c4)cc3CC[C@@H]12` registered a melting point of 185 to 190 °C.

Turning to `COC(C)c1nc(C(C)(C)O)c(C(=O)O)n1Cc1ccc(-c2ccccc2-c2nnn[nH]2)cc1` (stereo unspecified), the melting point fell in the range of 174 to 185 °C.

For `CCOC(=O)COc1cc(Cl)c(C(=O)c2ccc([N+](=O)[O-])cc2)c(Cl)c1`, the melting point lay in the range of 96 to 98 °C.

Consider `Fc1ccc(F)c2c(NCCc3ccc(Oc4ccnc(C(F)(F)F)c4Cl)cc3)ncnc12`, for which the melting point fell in the range of 129 to 131 °C.

On to `COC(=O)COc1ccc(-c2ccc[nH]2)cc1`, for which the melting point was 136 to 137 °C.

With `COc1ccc(-c2nc3ncccc3[nH]2)c2cc(C(C)C)oc12`, the melting point amounted to 242 °C.

Compound `CCOC(=O)C(=O)Nc1c([N+](=O)[O-])cc(Br)c2c1CN(C)C2` yielded a melting point of 153 to 154 °C.

Take `CC(C)(C)c1ccc(OP2N(C(C)(C)C)P(Oc3ccc(C(C)(C)C)cc3C(C)(C)C)N2C(C)(C)C)c(C(C)(C)C)c1` (stereo unspecified): the melting point is 205 to 210 °C.

`Cc1ccc(N2CCCCC2)c(NC(=O)c2ccncc2)c1` came in with a melting point of 142 to 144 °C.

The compound `COc1ccc(-c2nc(C(F)(F)F)[nH]c2-c2ccc(S(C)(=O)=O)cc2)cc1OC` displayed a melting point of 221 to 224 °C.

On to `O=C1Nc2cc(Cl)ccc2Cn2cccc21`, for which the melting point was in the range of 177 to 179 °C.

`Cn1nc(-c2nc(O)c(Cl)cc2F)c(Cl)c1OC(F)F` gave a melting point of 126 to 128 °C.

Consider `O=C(/C=C/c1cccc([N+](=O)[O-])c1)N1CCN(C(=O)c2cc(C(F)(F)F)cc(C(F)(F)F)c2)[C@H](Cc2c[nH]c3ccccc23)C1`, for which the melting point is 127 to 133 °C.

Consider `CCOC(=O)NC(=O)C(C#N)=CNc1c(Cl)cc(Cl)cc1Cl`, for which the melting point lay within 245 to 247 °C.

The compound `CC(=NO)c1nn(C)c2cc(OCC3CC3(Cl)Cl)c(F)cc12` (stereo unspecified) had a melting point of 150 to 152 °C.

On to `C#CC(OC)Oc1cc(Cc2cnc(N)nc2N)cc(OC)c1OC` (stereo unspecified), for which the melting point was in the range of 153 to 155 °C.

Regarding `Cc1cc(Br)cnc1CCCCNc1ncc(Cc2cccnc2)cc1N`, the melting point was in the range of 85 to 87 °C.

For the compound `COC(=O)CNC(=O)C1CSSC1`, the melting point is 73 to 75 °C.

Consider `CN(C)C(=O)Nc1ccc(NCc2ccc(Cl)cc2Cl)cc1N`, for which the melting point was 147 to 152 °C.

In the case of `CCCS(=O)(=O)Oc1c(C(=O)c2ccc3c(c2C)C(SCC)CCS3(=O)=O)cnn1CC` (stereo unspecified), the melting point is 140 to 145 °C.

`COc1cc(Br)nc2[nH]cc(C(C)=O)c12` came in with a melting point greater than 210 °C.

With `CN(C)c1nsc2nc3ccccc3n12`, the melting point lay in the range of 102 to 104 °C.

`Cc1ccc(C2CC(=O)c3ccccc3N2)cc1` (stereo unspecified) had a melting point of 144 to 146 °C.

Compound `O=C1CCCC(CNC(=O)c2cc(O)ccc2OCC(F)(F)F)N1` (stereo unspecified) returned a melting point of 156 to 158 °C.

The compound `CCC(C)SC1=C(C#N)C(c2ccccc2)(c2ccccc2)C(=O)N1` (stereo unspecified) came in with a melting point of 155 to 156 °C.

For `CC(C)NC(=O)N1CCC(CN2C(=O)C3(COc4cc5c(cc43)CCO5)c3ccccc32)C1` (stereo unspecified), the melting point fell in the range of 107 to 115 °C.

With `Cn1cc(-c2nc3c(N[C@H]4[C@@H](C(N)=O)[C@@H]5C=C[C@H]4C5)ccnc3[nH]2)cn1`, the melting point was 236 to 238 °C.

`C=C(C)C(=O)OC1=CC(C(=O)O)C(O)(C(C)=O)C=C1` (stereo unspecified) had a melting point of 150 °C.

Consider `CCc1ncc(CO)c(NCc2ccc(-c3ccccc3-c3nnnn3C(c3ccccc3)(c3ccccc3)c3ccccc3)cc2)n1`, for which the melting point was in the range of 118 to 120 °C.

Turning to `COc1ccc2c(c1)sc1[nH]c(=O)c(=O)[nH]c12`, the melting point is greater than 300 °C.

On to `COc1c(C=CC(=O)O)cccc1Oc1ccccc1Cl`, for which the melting point was 145 to 147 °C.

Regarding `N#Cc1cc(O)n(-c2ccccc2)n1`, the melting point was determined as 190 °C.

`Cc1ccc2[nH]c3c(c2c1)CC(=O)Nc1cccnc1-3` had a melting point greater than 330 °C.

As to `CCCCOC(C(=O)O)c1ccc2c(c1)C(C)(C)CCC2(C)C` (racemic), the melting point is 79 to 82 °C.

Turning to `CCOC(=O)C1=C(C)NC(C)=C(C(=O)OCC2CC2)C1c1cccc([N+](=O)[O-])c1` (stereo unspecified), the melting point lay within 169 to 170 °C.

`Nc1cnc(-c2cc(Cl)ccc2Cl)c(N)n1` showed a melting point of 159 to 160 °C.

`Cc1c(O)cc(O)c(C)c1C(=O)OCC(Cl)(Cl)Cl` displayed a melting point of 132 to 133 °C.

Turning to `ON=C1Cc2ccccc2C=Cc2ccccc21`, the melting point is 191 to 192 °C.

Turning to `CC(C)(C)OC(=O)N(Cc1ccccc1)S(N)(=O)=O`, the melting point amounted to 127 °C.

On to `Clc1ccc2c(CCN3CCN(c4cccc5c4OCCO5)CC3)c[nH]c2c1`, for which the melting point lay in the range of 215 to 216 °C.

On to `O=c1c2ccccc2nc(-c2cc(-c3ccncc3)c(N3CCOCC3)s2)n1-c1ccccc1Cl`, for which the melting point lay within 179 to 180 °C.
